From patent US20240027453A1, “METHOD FOR DETECTION AND QUANTITATIVE MONITORING OF INFECTIONS WITH HERPESVIRUSES” (The Trustees of Princeton University, priority 2020, published 2024)
Like-named read-outs stand apart in the source and are kept apart here.

Test system: HCMV
Type: cell-based
Settings: L
Procedure: In example herpesvirus PRM assay methods shown herein, cell pellets were lysed in 2% SDS, 100 mM NaCl, 0.5 mM EDTA, 50 mM Tris, pH 8.2, and 50 μg of protein was reduced and alkylated with 25 mM TCEP and 50 mM CAM respectively for 20 min at 70° C. Proteins were then precipitated via methanol chloroform precipitation (Wessel & Flugg, Anal Biochem. 138(1):141-143, 1984), resuspended in 50 mM HEPES, pH 8.2 and digested overnight with trypsin (50:1 protein:enzyme w/w ratio). Digested peptides were desalted by SDB-RPS StageTip as previously described (Lum et al., Cell Syst., 7(6):[…], 2018; Greco et al., Methods Mol Biol 1410:39-63, 2016; Federspiel & Cristea, Methods Mol Biol., 1977:115-143, 2019).
Peptides (1.0 μg on column) were analyzed by LC-MS/MS using a Dionex Ultimate 3000 UHPLC coupled online to an EASYSpray ion source and a Q Exactive HF. Peptides were separated on an EASYSpray C18 column (75 μm×25 cm) heated to 50° C. using a linear gradient of 5% B to 32% B over 60 min at a flow rate of 250 nL/min and were ionized at 1.7 kv. Mobile phase A consisted of 0.1% FA in H2O and mobile phase B consisted of 0.1% FA, 2.9% H2O in ACN.
The PRM method was controlled by a peptide inclusion list with retention time windows of 6 min for selected precursor ions.
The PRM assay was developed and analyzed using the open-source software Skyline (Maclean et al., Bioinformatics 26(7):966-968, 2010). Summed area under the curve of 3-4 transitions per peptide was used for quantitation. Targeted peptides were normalized to host protein loading control peptides. Peptide values for each sample were scaled to the average of each peptide across all runs. The average of multiple peptides was used as the inferred value for the protein measurement when more than one peptide was quantified (Federspiel et al., PLoS Biol. 17(9):e3000437. Doi: 10.1371/journal.pbio.3000437). PRM quantitation data were graphed using the Python Seaborn and Matplotlib libraries.
MRC5 primary human fibroblasts (HFs) (ATCC CCL-171) were used as the model system for HSV-1 and HCMV infections and were cultured in complete growth medium (DMEM supplemented with 10% fetal bovine serum and 1% penicillin-streptomycin antibiotics) at 37° C. and 5% CO2. iSLK.219 cells harboring latent KSHV (a gift from Dr. Britt Glaunsinger, University of California, Berkeley) were grown in complete growth medium supplemented with 500 μg/ml hygromycin (ThermoFisher Scientific, 10687010) at 37° C. and 5% CO2. All cells were used for experiments within a maximum of 10 passages.
Wild type HSV-1 strain 17+ (a gift from Beate Sodeik, Hannover Medical School, Hannover, Germany) was propagated as previously described (Diner et al., 2015). Briefly, PO stocks were generated by electroporating pBAC-HSV-1 into U-2 OS cells. […] In a similar manner, wild type HCMV strain AD169 was produced from BAC electroporation into HFs and working stocks were propagated by infecting HFs at a low level. In both cases, cell-associated virus was released by sonication, combined with supernatant virus, then concentrated by ultracentrifugation (20,000 rpm, 2 hours, 4° C. with SW28 swinging bucket rotor [Beckman Coulter]) over a 10% ficoll (HSV-1) or 20% sorbitol (HCMV) cushion. Virus stock titers were determined by plaque assay for HSV-1 or tissue culture infectious dose (TCID50) for HCMV and infections were performed at a multiplicity of infection (MOI) of 3.
12 hours prior to virus infection or reactivation, cells were treated with either the small molecule drug or DMSO/PBS control at an equivalent volume. […] For infection cycles lasting longer than 24 hours, small molecule drugs were re-added to the cell culture medium every 24 hours. Upon collection, cells were rinsed with PBS, scraped into a microcentrifuge tube, pelleted by centrifugation, and rinsed again with PBS.

`Nc1ccn(C[C@@H](CO)OCP(=O)(O)O)c(=O)n1` [CDV, cidofovir] was tested, and the “UL82 (P06726) protein, numerical value of heatmap FIG. 6C” value (timepoint 48) was 0.2148, the “UL88 (P16731) protein, numerical value of heatmap FIG. 6C” value (timepoint 48) was 0.05021 and the “UL94 (P16800) protein, numerical value of heatmap FIG. 6C” value (timepoint 48) was 0.09258. The “UL99 (P13200) protein, numerical value of heatmap FIG. 6C” value (timepoint 48) was 0.06513, the “UL103 (P16734) protein, numerical value of heatmap FIG. 6C” value (timepoint 48) was 0.1954 and the “UL117 (P16770) protein, numerical value of heatmap FIG. 6C” value (timepoint 48) was 0.3875. The “gH (P12824) protein, numerical value of heatmap FIG. 6C” value (timepoint 48) was 0.1304, the “gL (P16832) protein, numerical value of heatmap FIG. 6C” value (timepoint 48) was 0.06908 and the “gM (P16733) protein, numerical value of heatmap FIG. 6C” value (timepoint 48) was 0.03119. For the same molecule, the “gN (P16795) protein, numerical value of heatmap FIG. 6C” value (timepoint 48) was 0.07597, the “sp|P16809|IR11_HCMVA (P16809) protein, numerical value of heatmap FIG. 6C” value (timepoint 48) was 0.502 and the “CVC1 (P16799) protein, numerical value of heatmap FIG. 6C” value (timepoint 72) was 0.4079. The “GO (P16750) protein, numerical value of heatmap FIG. 6C” value (timepoint 72) was 0.601, the “MCP (P16729) protein, numerical value of heatmap FIG. 6C” value (timepoint 72) was 0.4006 and the “SCP (Q7M6N6) protein, numerical value of heatmap FIG. 6C” value (timepoint 72) was 0.3733. For the same molecule, the “TRM2 (P16792) protein, numerical value of heatmap FIG. 6C” value (timepoint 72) was 0.5505, the “UL22A (P16845) protein, numerical value of heatmap FIG. 6C” value (timepoint 72) was 0.4199 and the “UL25 (P16761) protein, numerical value of heatmap FIG. 6C” value (timepoint 72) was 0.4606. For the same molecule, the “UL29 (P16764) protein, numerical value of heatmap FIG. 6C” value (timepoint 72) was 0.8549, the “UL30 (P16765) protein, numerical value of heatmap FIG. 6C” value (timepoint 72) was 0.4115 and the “UL31 (P16848) protein, numerical value of heatmap FIG. 6C” value (timepoint 72) was 0.4223. For the same molecule, the “UL43 (P16781) protein, numerical value of heatmap FIG. 6C” value (timepoint 72) was 0.2402, the “UL52 (P16793) protein, numerical value of heatmap FIG. 6C” value (timepoint 72) was 0.4658 and the “UL76 (P16725) protein, numerical value of heatmap FIG. 6C” value (timepoint 72) was 0.3035. For the same molecule, the “UL79 (P16752) protein, numerical value of heatmap FIG. 6C” value (timepoint 72) was 0.4713, the “UL80 (P16753) protein, numerical value of heatmap FIG. 6C” value (timepoint 72) was 0.6581 and the “UL82 (P06726) protein, numerical value of heatmap FIG. 6C” value (timepoint 72) was 0.4947. For the same molecule, the “UL88 (P16731) protein, numerical value of heatmap FIG. 6C” value (timepoint 72) was 0.4289, the “UL94 (P16800) protein, numerical value of heatmap FIG. 6C” value (timepoint 72) was 0.5474 and the “UL99 (P13200) protein, numerical value of heatmap FIG. 6C” value (timepoint 72) was 0.455. The “UL103 (P16734) protein, numerical value of heatmap FIG. 6C” value (timepoint 72) was 0.5642, the “UL117 (P16770) protein, numerical value of heatmap FIG. 6C” value (timepoint 72) was 0.5867 and the “gH (P12824) protein, numerical value of heatmap FIG. 6C” value (timepoint 72) was 0.7542. For the same molecule, the “gL (P16832) protein, numerical value of heatmap FIG. 6C” value (timepoint 72) was 0.5073, the “gM (P16733) protein, numerical value of heatmap FIG. 6C” value (timepoint 72) was 0.477 and the “gN (P16795) protein, numerical value of heatmap FIG. 6C” value (timepoint 72) was 0.5141. For the same molecule, the “sp|P16809|IR11_HCMVA (P16809) protein, numerical value of heatmap FIG. 6C” value (timepoint 72) was 0.869, the “CVC1 (P16799) protein, numerical value of heatmap FIG. 6C” value (timepoint 96) was 0.6 and the “GO (P16750) protein, numerical value of heatmap FIG. 6C” value (timepoint 96) was 0.5678. For the same molecule, the “MCP (P16729) protein, numerical value of heatmap FIG. 6C” value (timepoint 96) was 0.8755, the “SCP (Q7M6N6) protein, numerical value of heatmap FIG. 6C” value (timepoint 96) was 0.678 and the “TRM2 (P16792) protein, numerical value of heatmap FIG. 6C” value (timepoint 96) was 0.8343. For the same molecule, the “UL22A (P16845) protein, numerical value of heatmap FIG. 6C” value (timepoint 96) was 0.5842, the “UL25 (P16761) protein, numerical value of heatmap FIG. 6C” value (timepoint 96) was 0.8443 and the “UL29 (P16764) protein, numerical value of heatmap FIG. 6C” value (timepoint 96) was 0.8921. For the same molecule, the “UL30 (P16765) protein, numerical value of heatmap FIG. 6C” value (timepoint 96) was 0.5445, the “UL31 (P16848) protein, numerical value of heatmap FIG. 6C” value (timepoint 96) was 0.6245 and the “UL43 (P16781) protein, numerical value of heatmap FIG. 6C” value (timepoint 96) was 0.7777. The “UL52 (P16793) protein, numerical value of heatmap FIG. 6C” value (timepoint 96) was 0.8766, the “UL76 (P16725) protein, numerical value of heatmap FIG. 6C” value (timepoint 96) was 0.421 and the “UL79 (P16752) protein, numerical value of heatmap FIG. 6C” value (timepoint 96) was 0.5586.
